According to patent publication US12180143B1, “8-((4-hydroxy-3-methoxyphenyl)diazenyl)naphthalene-1,3-disulfonic acid as an antioxidant compound” (KING FAISAL UNIVERSITY, priority 2023, dated 2024):

Assay: DPPH radical scavenging antioxidant test
Type: biochemical
Settings: 517 nm; for Inhibition (radical scavenging inhibition): 0.2 mL DPPH (0.75 mM), compound 3 μM in ethanol, 30 min incubation in the dark
Procedure: The antioxidant properties of the 8-((4-hydroxy-3-methoxyphenyl)diazenyl) naphthalene-1,3-disulfonic acid were studied by adding 0.2 mL DPPH (0.75 mM)) to compound 8-((4-hydroxy-3-methoxyphenyl)diazenyl) naphthalene-1,3-disulfonic acid (III) (3 μM) in ethanol. After 30 min of incubation in the dark, the absorbance was read against a blank at 517 nm. Ascorbic acid (vitamin C) was used as standard antioxidants (positive control). A blank sample was prepared by 0.2 ml of DPPH in 3 mL ethanol. A negative control sample was run using ethanol instead of the sample. The radical scavenging inhibition was calculated using the following equation: […]

Row | Compound | Inhibition (radical scavenging inhibition) [%] | antioxidant potential to vanish the DPPH radical distinctive colors, compared to vitamin C (DPPH in vitro test, vitamin C as positive control)
1 | COc1cc(/N=N/c2cccc3cc(S(=O)(=O)O)cc(S(=O)(=O)O)c23)ccc1O [Product III, 8-((4-hydroxy-3-methoxyphenyl)diazenyl) naphthalene-1,3-disulfonic acid] | 48 | high potential as an antioxidant compared to vitamin C
2 | O=C1O[C@H]([C@@H](O)CO)C(O)=C1O [vit c, Ascorbic acid, reference compound] | 74 | 
